For one series, the system named is Gram-positive bacteria. It is filed as cell-based. The following applies: 24 h. The method, then:
(§1) The antimicrobial activity of the peptides was determined via the method of two-fold serial dilutions in sterile 96-well flat-bottom polystyrene microplates (Eppendorf #0030730011) in Mueller–Hinton broth (MHB, Sigma, Kawasaki, Kanagawa, Japan) supplemented with 0.9% NaCl. Bacterial cultures were grown in MHB at 37 °C until the culture reached an optical density OD600 of 1.0 and diluted with the broth so that to reach a final cell concentration of 10^6 CFU/mL. Then 50 μL of the test culture were added to 50 μL of aqueous solutions of the peptides, previously diluted in 0.1% sterilized bovine serum albumin (BSA) to reduce non-specific binding of the peptides to the surface of the plates. Next, the plate was incubated for 24 h at 37 °C and 950 rpm on the plate thermoshaker (Biosan). The values of the minimum inhibitory concentrations (MIC) were determined as the minimum concentration of the peptide, at which there is no culture growth. The results were expressed as the median values of three independent experiments performed in triplicate.

Series [1] can be described thus: RP-HPLC retention time as measure of hydrophobicity. Conditions: chromatographic, semipreparative RP-HPLC, C18 column, linear gradient 5 to 80% (v/v) acetonitrile in water with 0.1% TFA within 50 minutes; used as measure of hydrophobicity. It is filed as physicochemical. The method, then:
Table S1. Characteristics of the recombinant AMPs.
1 Mean Kyte–Doolittle hydrophobicity index (GRAVY) was calculated using the Expasy ProtParam tool. The maximum and minimum values of this index are +4.5 and -4.5 for poly-Ile and poly-Arg sequences, respectively. 2 Retention times were measured using semipreparative reversed-phase high-performance liquid chromatography (RP - HPLC) on a C18 column with a linear gradient from 5 to 80% ( v/v) acetonitrile in water containing 0.1% trifluoroacetic […]
acid (TFA) within 50 minutes. […]

In a further series the test system is Gram-negative bacteria. As to the kind of experiment: Geometric mean of MICs, Gram-negative panel. The class given is cell-based. The following applies: geometric mean (GM) of MICs against the 14 Gram-negative strains of Figure 2. The method, then:
as §1

Another series deals with human red blood cells. It is filed as cell-based. The method, then: Figure 4 (A) Hemolytic effect on human red blood cells after 2 h incubation (hemoglobin release assay). (B) Cytotoxicity toward transformed human embryonic kidney cells after 20 h incubation (MTT-assay). The positive control used was 0.1% Triton X-100 and sterile PBS as a negative control. Melittin was used as an additional positive control. The data are presented as the mean ± SD of three independent experiments.
The hemolytic activity of compounds was performed using human red blood cells (hRBS) of healthy donor. Fresh blood was centrifuged to separate the erythrocyte fraction for 15 min at 500 g and washed three times with cold phosphate-buffered saline (PBS) (pH 7.4), after which an 8% (v/v) suspension of erythrocytes in PBS was prepared. Then, 50 µL of erythrocyte suspension was added to the test peptides, previously were dissolved in 50 µL of 0.1% BSA. The plate was incubated for 1.5 h at 37 °C and 950 rpm on the plate thermoshaker. After incubation, the plates were centrifuged for 15 min at 1000 g to settle intact erythrocytes. Next, aliquots of the supernatant were transferred to another plate to measure the amount of hemoglobin release by the absorbance of the solution at 405 nm. As “zero lysis” we used the supernatant obtained after centrifugation of erythrocytes incubated in a PBS solution without the addition of a peptide. As “100% lysis”, we used the supernatant obtained after centrifugation of erythrocytes incubated in a 0.1% Triton X-100, causing their complete lysis. The assays were conducted three times. The quantitative data were presented as an average means with standard deviations. Hemolysis(%)=OD405(compound)−OD405(zerolysis)/OD405(100%lysis)−OD405(zerolysis)×100%

Structures are written as SMILES. ≈ marks a conversion by molar mass, not a printed value. Positions of bridges follow the written chain, without caps; N, C: chain ends. Residues, ends and D or L forms follow the SMILES beside them.

For the molecule `CC(C)C[C@@H]1NC(=O)[C@H](Cc2ccc(O)cc2)NC(=O)[C@@H]2CSSC[C@H](NC(=O)[C@H](C)NC(=O)[C@H](CCCNC(=N)N)NC(=O)[C@H](C(C)C)NC(=O)CNC(=O)[C@H](CC(N)=O)NC(=O)[C@H](CCCNC(=N)N)NC1=O)C(=O)N[C@@H](Cc1ccc(O)cc1)C(=O)N[C@@H](CCCNC(=N)N)C(=O)N[C@@H](CCCNC(=N)N)C(=O)N[C@H](C(=O)N[C@@H](CC(N)=O)C(=O)O)CSSC[C@H](NC(=O)[C@H](Cc1ccc(O)cc1)NC(=O)CN)C(=O)N[C@@H](Cc1ccccc1)C(=O)N[C@@H]([C@@H](C)O)C(=O)N[C@@H](C)C(=O)N2` [Ap7] (H-GYCFTACYLRNGVRACYRRCN-OH; disulfide 3-20, 7-16), the “Minimum inhibitory concentration (MIC): Gram-positive Geometric mean” value with Gram-positive bacteria was determined as 8 µM (≈ 19.9 µg/mL). Besides, in series [1], the “RP-HPLC Retention Time” value came to 25.61 min.

For `CC[C@H](C)[C@@H]1NC(=O)[C@H](CCCNC(=N)N)NC(=O)[C@H](C(C)C)NC(=O)CNC(=O)[C@H](CC(N)=O)NC(=O)[C@H](CCCNC(=N)N)NC(=O)[C@H](CC(C)C)NC(=O)[C@H](CCCNC(=N)N)NC(=O)[C@@H]2CSSC[C@H](NC1=O)C(=O)N[C@@H](Cc1ccc(O)cc1)C(=O)N[C@@H](CCCNC(=N)N)C(=O)N[C@@H](CCCNC(=N)N)C(=O)N[C@H](C(=O)N[C@@H](CC(N)=O)C(=O)O)CSSC[C@H](NC(=O)[C@H](Cc1ccc(O)cc1)NC(=O)CN)C(=O)N[C@@H](Cc1ccccc1)C(=O)N[C@@H]([C@@H](C)O)C(=O)N[C@@H](C)C(=O)N2` [Ap2] (H-GYCFTACRLRNGVRICYRRCN-OH; disulfide 3-20, 7-16), the “Minimum inhibitory concentration (MIC): Gram-positive Geometric mean” value in the series on Gram-positive bacteria was found to be 12.7 µM (≈ 32 µg/mL). The “RP-HPLC Retention Time” value in series [1] amounted to 24.29 min.

`CC[C@H](C)[C@@H]1NC(=O)[C@H](CCCNC(=N)N)NC(=O)[C@H](C)NC(=O)CNC(=O)[C@H](CC(N)=O)NC(=O)[C@H](CCCNC(=N)N)NC(=O)[C@H](CCCNC(=N)N)NC(=O)[C@H](Cc2ccc(O)cc2)NC(=O)[C@@H]2CSSC[C@H](NC1=O)C(=O)N[C@@H](Cc1ccc(O)cc1)C(=O)N[C@@H](CCCNC(=N)N)C(=O)N[C@@H](CCCNC(=N)N)C(=O)N[C@H](C(=O)N[C@@H](CC(N)=O)C(=O)O)CSSC[C@H](NC(=O)[C@H](Cc1ccc(O)cc1)NC(=O)CN)C(=O)N[C@@H](Cc1ccccc1)C(=O)N[C@@H]([C@@H](C)O)C(=O)N[C@@H](C)C(=O)N2` [Ap10] (H-GYCFTACYRRNGARICYRRCN-OH; disulfide 3-20, 7-16): in the series with Gram-negative bacteria, the “Minimum inhibitory concentration (MIC): Gram-negative Geometric mean” value came to 0.31 µM (≈ 0.788 µg/mL). Further, the “Minimum inhibitory concentration (MIC): Gram-positive Geometric mean” value with Gram-positive bacteria turned out to be 2.52 µM (≈ 6.41 µg/mL). In series [1], the “RP-HPLC Retention Time” value is 24.41 min.

As to `CC[C@H](C)[C@@H]1NC(=O)[C@H](CCCNC(=N)N)NC(=O)[C@H](C)NC(=O)CNC(=O)[C@H](CC(N)=O)NC(=O)[C@H](CCCNC(=N)N)NC(=O)[C@H](CC(C)C)NC(=O)[C@H](Cc2ccc(O)cc2)NC(=O)[C@@H]2CSSC[C@H](NC1=O)C(=O)N[C@@H](Cc1ccc(O)cc1)C(=O)N[C@@H](CCCNC(=N)N)C(=O)N[C@@H](CCCNC(=N)N)C(=O)N[C@H](C(=O)N[C@@H](CC(N)=O)C(=O)O)CSSC[C@H](NC(=O)[C@H](Cc1ccc(O)cc1)NC(=O)CN)C(=O)N[C@@H](Cc1ccccc1)C(=O)N[C@@H]([C@@H](C)O)C(=O)N[C@@H](C)C(=O)N2` [Ap5] (H-GYCFTACYLRNGARICYRRCN-OH; disulfide 3-20, 7-16), the “Minimum inhibitory concentration (MIC): Gram-positive Geometric mean” value in the series on Gram-positive bacteria was 5.04 µM (≈ 12.6 µg/mL). The “RP-HPLC Retention Time” value in series [1] came to 25.53 min.

In the case of `CC[C@H](C)[C@@H]1NC(=O)[C@H](CCCNC(=N)N)NC(=O)[C@H](CCCNC(=N)N)NC(=O)CNC(=O)[C@H](CC(N)=O)NC(=O)[C@H](CCCNC(=N)N)NC(=O)[C@H](CC(C)C)NC(=O)[C@H](Cc2ccc(O)cc2)NC(=O)[C@@H]2CSSC[C@H](NC1=O)C(=O)N[C@@H](Cc1ccc(O)cc1)C(=O)N[C@@H](CCCNC(=N)N)C(=O)N[C@@H](CCCNC(=N)N)C(=O)N[C@H](C(=O)N[C@@H](CC(N)=O)C(=O)O)CSSC[C@H](NC(=O)[C@H](Cc1ccc(O)cc1)NC(=O)CN)C(=O)N[C@@H](Cc1ccccc1)C(=O)N[C@@H]([C@@H](C)O)C(=O)N[C@@H](C)C(=O)N2` [Ap6] (H-GYCFTACYLRNGRRICYRRCN-OH; disulfide 3-20, 7-16), in the series on Gram-positive bacteria, the “Minimum inhibitory concentration (MIC): Gram-positive Geometric mean” value turned out to be 6.35 µM (≈ 16.4 µg/mL). For the same molecule, the “RP-HPLC Retention Time” value in series [1] was found to be 24.69 min.

With `CC(C)C[C@@H]1NC(=O)[C@H](Cc2ccc(O)cc2)NC(=O)[C@@H]2CSSC[C@H](NC(=O)[C@H](CCCNC(=N)N)NC(=O)[C@H](CCCNC(=N)N)NC(=O)[C@H](C(C)C)NC(=O)CNC(=O)[C@H](CC(N)=O)NC(=O)[C@H](CCCNC(=N)N)NC1=O)C(=O)N[C@@H](Cc1ccc(O)cc1)C(=O)N[C@@H](CCCNC(=N)N)C(=O)N[C@@H](CCCNC(=N)N)C(=O)N[C@H](C(=O)N[C@@H](CC(N)=O)C(=O)O)CSSC[C@H](NC(=O)[C@H](Cc1ccc(O)cc1)NC(=O)CN)C(=O)N[C@@H](Cc1ccccc1)C(=O)N[C@@H]([C@@H](C)O)C(=O)N[C@@H](C)C(=O)N2` [Ap8] (H-GYCFTACYLRNGVRRCYRRCN-OH; disulfide 3-20, 7-16), the “Minimum inhibitory concentration (MIC): Gram-positive Geometric mean” value in the series on Gram-positive bacteria worked out at 16 µM (≈ 41.1 µg/mL). For the same molecule, the “RP-HPLC Retention Time” value in series [1] amounted to 24.34 min.

With `CC[C@H](C)[C@@H]1NC(=O)[C@H](CCCNC(=N)N)NC(=O)[C@H](C(C)C)NC(=O)CNC(=O)[C@H](CC(N)=O)NC(=O)[C@H](CCCNC(=N)N)NC(=O)[C@H](C)NC(=O)[C@H](Cc2ccc(O)cc2)NC(=O)[C@@H]2CSSC[C@H](NC1=O)C(=O)N[C@@H](Cc1ccc(O)cc1)C(=O)N[C@@H](CCCNC(=N)N)C(=O)N[C@@H](CCCNC(=N)N)C(=O)N[C@H](C(=O)N[C@@H](CC(N)=O)C(=O)O)CSSC[C@H](NC(=O)[C@H](Cc1ccc(O)cc1)NC(=O)CN)C(=O)N[C@@H](Cc1ccccc1)C(=O)N[C@@H]([C@@H](C)O)C(=O)N[C@@H](C)C(=O)N2` [Ap3] (H-GYCFTACYARNGVRICYRRCN-OH; disulfide 3-20, 7-16), the “Minimum inhibitory concentration (MIC): Gram-positive Geometric mean” value with Gram-positive bacteria was 1 µM (≈ 2.49 µg/mL). Moreover, the “Hemolytic activity (in words)” value in the series with human red blood cells is recorded as “ability to lyse hRBCs is stronger”. The “RP-HPLC Retention Time” value in series [1] is listed as 25.47 min.

In the case of `CC[C@H](C)[C@@H]1NC(=O)[C@H](CCCNC(=N)N)NC(=O)[C@H](C(C)C)NC(=O)CNC(=O)[C@H](CC(N)=O)NC(=O)[C@H](CCCNC(=N)N)NC(=O)[C@H](CC(C)C)NC(=O)[C@H](C)NC(=O)[C@@H]2CSSC[C@H](NC1=O)C(=O)N[C@@H](Cc1ccc(O)cc1)C(=O)N[C@@H](CCCNC(=N)N)C(=O)N[C@@H](CCCNC(=N)N)C(=O)N[C@H](C(=O)N[C@@H](CC(N)=O)C(=O)O)CSSC[C@H](NC(=O)[C@H](Cc1ccc(O)cc1)NC(=O)CN)C(=O)N[C@@H](Cc1ccccc1)C(=O)N[C@@H]([C@@H](C)O)C(=O)N[C@@H](C)C(=O)N2` [Ap1] (H-GYCFTACALRNGVRICYRRCN-OH; disulfide 3-20, 7-16), the “Minimum inhibitory concentration (MIC): Gram-positive Geometric mean” value in the series on Gram-positive bacteria worked out at 10.08 µM (≈ 24.6 µg/mL). Also, in series [1], the “RP-HPLC Retention Time” value was 26.05 min.
